{"source": "patent US8173840B2", "about": "“Compounds with high therapeutic index” (Signature R&D Holdings, LLC, priority 2003, dated 2012)", "key": {"[1]": {"system": "fasted male albino rats (Wistar strain)", "assay": "Gastric mucosa irritation of acetylsalicylic acid esters", "assay_type": "in vivo, rat", "conditions": "single dose by gavage, 3 hours, 5 animals", "method": "Aspirin served as a reference control. […] All the doses were expressed as aspirin molar equivalents. The doses used as well as the molar equivalents are presented below. The rats were fasted for a period of 18 to 22 hours before dosing. The test item was administered as a single dose by gavage. Three hours after drug administration, the animals were killed humanely by CO2 gas inhalation. The stomach was dissected out and observed for • the quantity of mucous exudate, • degree of hyperemia and thickening of stomach wall, • hemorrhagic spots (focal or diffuse), nature of hemorrhages (petechial or ecchymotic) along with the size and • perforations"}, "[2]": {"system": "human volunteers", "assay": "Blood clotting time studies in human volunteers", "assay_type": "in vivo", "conditions": "human volunteers", "method": "Several blood clotting time studies were performed on a limited number of human volunteers with Acetylsalicylic Acid-L-Threonine Ester. […] This plot was derived from the data in Table 29. The two Acetylsalicylic Acid-L-Threonine Ester blocks shown above correspond to two separate volunteers who took the test drug over a period of 5 days. The third volunteer took Bayer Aspirin for 5 days. As per FIG. 2, increase in clotting time occurred on the very first day of drug intake, and remained higher than Bayer ASA during the subsequent administrations."}, "[3]": {"system": "women", "conditions": "daily dose of 60 mg, more than 9000 women; cited from earlier work"}, "[4]": {"system": "rats", "assay": "Clotting time in rats, different date, time intervals and doses (Table 24)", "assay_type": "in vivo, rat", "source_text": "The following additional data were obtained, when the same drugs were compared in rats on a different date with different time intervals and doses: […]"}, "[5]": {"system": "albino rats", "assay": "Blood clotting time in albino rats, one hour after dosing", "assay_type": "in vivo, rat", "conditions": "one hour after dosing", "method": "The data on the mean clotting time (MCT) of the animals of low, intermediate and high dose groups of different formulations, vehicle control and positive control groups estimated one hour after dosing were presented below (Table 19):\nAspirin served as positive control. The study was conducted at three dose levels with the new formulations and positive control along with a vehicle control group.\nThe doses for the main study were selected based on the dose range finding experiments with acetylsalicylic acid. All the doses were expressed as aspirin molar equivalents. The doses used are presented below."}, "[6]": {"system": "albino rats (Wistar strain)", "conditions": "rat, in vivo", "protocol": "(§1) The study was conducted at one dose level only along with a vehicle control group as per the recommendation of the Sponsor. The test doses are expressed as Aspirin molar equivalents."}, "[7]": {"assay": "Plasma aspirin and salicylic acid in human volunteers", "assay_type": "in vivo", "source_text": "This is shown in FIG. 12 which depicts the concentration of salicyclic Acid in human plasma with respect to four volunteers who took Acetylsalicyclic Acid-L-Threonine Ester and two volunteers who took Aspirin."}, "[8]": {"system": "albino rats (Wistar strain)", "assay": "28-day repeated dose oral toxicity test of Acetylsalicylic Acid-L-Threonine Ester", "conditions": "100 mg/kg as aspirin, oral gavage daily 28 days", "protocol": "as §1"}, "[9]": {"system": "Male albino rats", "assay": "Blood clotting time in albino rats, 2 hours after dosing", "assay_type": "in vivo, rat", "conditions": "20 mg/kg as aspirin, 2 hours (±10 minutes) after dosing", "method": "Aspirin served as positive control. Male albino rats were exposed to aspirin and to 3 new formulations of amino acid derivatives of aspirin derivatives at one dose level of 20 mg/kg body weight. […]. The doses were expressed as aspirin molar equivalents.\nThe efficacy in terms of time required for the blood clotting time at the dose level of 20 mg/kg body weight for different formulations of amino acid derivatives of aspirin and aspirin (positive control) are presented below:\nThe data on the mean clotting time (MCT) of the animals, estimated 2 hours (±10 minutes) after dosing, at the dose level of 20 mg/kg body weight for the formulations of aspirin derivatives, vehicle control and positive control are presented below"}}}
{"smiles": "CC(=O)Oc1ccccc1C(=O)O", "note": "[acetylsalicylic acid, reference compound]", "values": [{"measurement": "Observation, gastric mucosal irritation", "setting": "[1]; 100.0 mg/kg as acetylsalicylic acid, listed as aspirin", "value": "failed to cause any evidence of gastric mucosal irritation"}, {"measurement": "Observation, gastric mucosal irritation", "setting": "[1]; 200.0 mg/kg as acetylsalicylic acid, listed as aspirin (acetylsalicylic acid)", "value": "caused irritation of the gastric mucosal in all the fasted male albino rats"}, {"measurement": "AVERAGE CLOTTING TIME", "setting": "[2]; 81 mg", "value": 4.5, "unit": "min"}, {"measurement": "AVERAGE CLOTTING TIME", "setting": "[2]; 325 mg", "value": 5.7, "unit": "min"}, {"measurement": "reduced the risk of pre-eclampsia by", "setting": "[3]", "value": 13, "unit": "%"}, {"measurement": "Clotting Time", "setting": "[4]; 10 mg/kg 1 hr", "value": 9.8, "unit": "min"}, {"measurement": "Clotting Time", "setting": "[4]; 10 mg/kg 24 hr", "value": 4.4, "unit": "min"}, {"measurement": "Clotting Time", "setting": "[4]; 20 mg/kg 2 hr", "value": 5.4, "unit": "min"}, {"measurement": "Mean Clotting Time (±S.D.), Low Dose", "setting": "[5]; 1.0 mg/kg as aspirin", "value": "6.2 ± 1.40", "unit": "min"}, {"measurement": "Mean Clotting Time (±S.D.), Intermediate Dose", "setting": "[5]; 4.0 mg/kg as aspirin", "value": "8.1 ± 1.97", "unit": "min"}, {"measurement": "Mean Clotting Time (±S.D.), High Dose", "setting": "[5]; 10.0 mg/kg as aspirin", "value": "9.8 ± 1.32", "unit": "min"}, {"measurement": "statistical analysis of mean clotting time vs vehicle control", "setting": "[5]", "value": "significant improvement at 5% significance level in the efficacy for the intermediate and high dose"}, {"measurement": "Alkaline Phosphatase, Significance [P < 0.05]", "setting": "[6]", "value": "Increase (Female)"}, {"measurement": "All Blood Parameters, Significance [P < 0.05]", "setting": "[6]", "value": "None"}, {"measurement": "Blood Urea, Significance [P < 0.05]", "setting": "[6]", "value": "Decrease (Female)"}, {"measurement": "Food intake", "setting": "[6]", "value": "normal and comparable to the animals of vehicle control group"}, {"measurement": "Kidney (Abs) organ weight, Significance[P < 0.05]", "setting": "[6]", "value": "Decrease (Male)"}, {"measurement": "Kidney (Rel) organ weight, Significance[P < 0.05]", "setting": "[6]", "value": "Increase (Male)"}, {"measurement": "SGPT and Cholesterol, Significance [P < 0.05]", "setting": "[6]", "value": "Increase (Male)"}, {"measurement": "Sodium, Significance [P < 0.05]", "setting": "[6]", "value": "Increase (Female)"}, {"measurement": "Spleen (Abs) organ weight, Significance[P < 0.05]", "setting": "[6]", "value": "Decrease (Female)"}, {"measurement": "Spleen (Rel) organ weight, Significance[P < 0.05]", "setting": "[6]", "value": "Increase (Female)"}, {"measurement": "histological sections of organs", "setting": "[6]", "value": "mild fatty changes in the cardiac muscle fibers of heart and mild catarrhal changes of gastric mucosa"}, {"measurement": "Salicylic Acid in human plasma (profile, words)", "setting": "[7]", "value": "Rapid influx and efflux of Salicylic Acid"}, {"measurement": "Aspirin in blood / plasma", "setting": "[7]; 325 mg dose, oral", "value": "showed Plasma levels of Aspirin"}, {"measurement": "survival", "setting": "[8]", "value": "survived through the dosing period of 28 days"}, {"measurement": "Mean Clotting Time (± S.D.)", "setting": "[9]", "value": "5.4 ± 1.17", "unit": "min"}]}
